# Data reported in patent US20100298141A1, “SUBSTITUTED PYRIDINE N-OXIDE HERBICIDES” (E. I. DU PONT DE NEMOURS AND COMPANY, priority 2007, published 2010).
# Experiments:
# giant foxtail [1] = test: Test C pre-/postemergence test; type: in vivo, Setaria faberii; settings: Preemergence; for Foxtail, Giant plant response rating: 62 g ai/ha, scale 0 to 100; for Plant response rating, Foxtail, Giant: 31 g ai/ha, scale 0 to 100 (0 no effect, 100 complete control); for Plant response rating (0 to 100), Foxtail, Giant: 250 g ai/ha
# Summary of the method: (§1)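 Compounds in a non-phytotoxic solvent with surfactant applied preemergence to seeded pots and, at the same time, postemergence to plants 2–18 cm tall (1- to 4-leaf stage). Paddy tests: pots flooded to 3 cm, compound applied into the water, depth held throughout.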
# morningglory = test: Test C pre-/postemergence test; type: in vivo, Ipomoea coccinea; settings: Preemergence; for Morningglory plant response rating: 62 g ai/ha, scale 0 to 100; for Plant response rating, Morningglory: 31 g ai/ha, scale 0 to 100 (0 no effect, 100 complete control)
# Summary of the method: as §1
# pigweed = test: Test C pre-/postemergence test; type: in vivo, Amaranthus retroflexus; settings: Preemergence; for Pigweed plant response rating: 62 g ai/ha, scale 0 to 100; for Plant response rating, Pigweed: 31 g ai/ha, scale 0 to 100 (0 no effect, 100 complete control)
# Summary of the method: as §1
# rice = test: Test C flooded paddy test; type: in vivo, Oryza sativa; settings: Flood
# Summary of the method: (§2)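 Ratings were visual and made relative to untreated controls after 13 to 15 greenhouse days.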
# lambsquarters = test: Test C pre-/postemergence test; type: in vivo, Chenopodium album; settings: Preemergence; for Lambsquarters plant response rating: 62 g ai/ha, scale 0 to 100; for Plant response rating, Lambsquarters: 31 g ai/ha, scale 0 to 100 (0 no effect, 100 complete control)
# Summary of the method: as §1
# barnyardgrass = test: Test C flooded paddy test; type: in vivo, Echinochloa crus-galli; settings: Flood
# Summary of the method: as §2
# crabgrass = test: Test C pre-/postemergence test; type: in vivo, Digitaria sanguinalis; settings: Preemergence; for Crabgrass, Large plant response rating: 62 g ai/ha, scale 0 to 100; for Plant response rating, Crabgrass, Large: 31 g ai/ha, scale 0 to 100 (0 no effect, 100 complete control); for Plant response rating (0 to 100), Crabgrass, Large: 250 g ai/ha
# Summary of the method: as §1
# velvetleaf = test: Test A pre-/postemergence greenhouse test; type: in vivo, Abutilon theophrasti; settings: for Velvetleaf plant response rating: 0 to 100 scale; for Plant response rating, Velvetleaf: 0 to 100 scale where 0 is no effect and 100 is complete control
# Summary of the method: (§3)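 Seeds sown in a loam soil–sand blend got a preemergence directed soil spray of compound in a non-phytotoxic solvent mixture containing surfactant. Postemergence sprays of the same formulation went at the same time onto plants 2–10 cm tall at the one- to two-leaf stage. Injury was scored visually against untreated controls after about ten days in the greenhouse.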
# Surinam grass = test: Test C pre-/postemergence test; type: in vivo, Brachiaria decumbens; settings: Preemergence; for Surinam Grass plant response rating: 62 g ai/ha, scale 0 to 100; for Plant response rating, Surinam Grass: 31 g ai/ha, scale 0 to 100 (0 no effect, 100 complete control)
# Summary of the method: as §1
# bermudagrass = test: Test C pre-/postemergence test; type: in vivo, Cynodon dactylon; settings: for Plant response rating, Bermudagrass: 31 g ai/ha; for Plant response rating (0 to 100), Bermudagrass: 250 g ai/ha
# Summary of the method: as §1
# johnsongrass = test: Test C pre-/postemergence test; type: in vivo, Sorghum halepense; settings: Preemergence; for Johnsongrass plant response rating: 62 g ai/ha, scale 0 to 100; for Plant response rating (0 to 100), Johnsongrass: 250 g ai/ha
# Summary of the method: as §1
# catchweed bedstraw = test: Test C pre-/postemergence test; type: in vivo, Galium aparine; settings: Preemergence; for Galium plant response rating: 62 g ai/ha, scale 0 to 100; for Plant response rating, Galium: 31 g ai/ha, scale 0 to 100 (0 no effect, 100 complete control); for Plant response rating (0 to 100), Galium: 250 g ai/ha
# Summary of the method: as §1
# wheat = test: Test A pre-/postemergence greenhouse test; type: in vivo, Triticum aestivum; settings: for Wheat plant response rating: 0 to 100 scale; for Plant response rating, Wheat: 0 to 100 scale where 0 is no effect and 100 is complete control
# Summary of the method: as §3
# corn = test: Test A pre-/postemergence greenhouse test; type: in vivo, Zea mays; settings: for Corn plant response rating: 0 to 100 scale; for Plant response rating, Corn: 0 to 100 scale where 0 is no effect and 100 is complete control
# Summary of the method: as §3
# giant foxtail [2] = test: Test A pre-/postemergence greenhouse test; type: in vivo, Setaria faberi; settings: for Foxtail, Giant plant response rating: 0 to 100 scale; for Plant response rating, Foxtail, Giant: 0 to 100 scale where 0 is no effect and 100 is complete control
# Summary of the method: as §3
# soybean = test: Test C pre-/postemergence test; type: in vivo, Glycine max; settings: Preemergence; for Soybean plant response rating: 62 g ai/ha, scale 0 to 100; for Plant response rating, Soybean: 31 g ai/ha, scale 0 to 100 (0 no effect, 100 complete control)
# Summary of the method: as §1
# downy brome = test: Test C pre-/postemergence test; type: in vivo, Bromus tectorum; settings: for Plant response rating, Bromegrass, Downy: 31 g ai/ha, scale 0 to 100 (0 no effect, 100 complete control); for Plant response rating (0 to 100), Bromegrass, Downy: 250 g ai/ha
# Summary of the method: as §1
# [3] = 31 g ai/ha, scale 0 to 100 (0 no effect, 100 complete control)
# [4] = 62 g ai/ha, scale 0 to 100, 0 no effect, 100 complete control, 13 to 15 days
# [5] = 125 g ai/ha, scale 0 to 100, 0 no effect, 100 complete control, 13 to 15 days
# [6] = 250 g ai/ha, scale 0 to 100 (0 no effect, 100 complete control)
# [7] = Postemergence, 125 g ai/ha, 0 is no effect, 100 is complete control
# [8] = Postemergence, 500 g ai/ha, 0 is no effect, 100 is complete control
# [9] = Preemergence, 125 g ai/ha, 0 no effect, 100 complete control
# [10] = 62 g ai/ha, Preemergence, scale 0 to 100 (0 no effect, 100 complete control)
# [11] = Preemergence, scale 0 to 100 (0 no effect, 100 complete control)
# [12] = preemergence, 125 g ai/ha, scale 0 (no effect) to 100 (complete control)
# [13] = 62 g ai/ha, Preemergence, scale 0 to 100
smiles,measurement,setting,value
Cn1nc(C(F)(F)F)c(CS(=O)(=O)c2ccc(Cl)c[n+]2[O-])c1Cl [Compound 18],"Foxtail, Giant plant response rating",giant foxtail [1],85
same,"Plant response rating, Foxtail, Giant",giant foxtail [1],65
same,"Plant response rating (0 to 100), Foxtail, Giant",giant foxtail [1],100
same,Morningglory plant response rating,morningglory,0
same,"Plant response rating, Morningglory",morningglory,0
same,Pigweed plant response rating,pigweed,100
same,"Plant response rating, Pigweed",pigweed,100
same,"Plant response rating, Rice",rice; [3],30
same,"Plant response rating, Rice",rice; [4],40
same,"Plant response rating, Rice",rice; [5],80
same,"Plant response rating, Rice",rice; [6],80
same,Lambsquarters plant response rating,lambsquarters,0
same,"Plant response rating, Lambsquarters",lambsquarters,0
same,"Plant response rating, Barnyardgrass",barnyardgrass; [3],0
same,"Plant response rating, Barnyardgrass",barnyardgrass; [4],30
same,"Plant response rating, Barnyardgrass",barnyardgrass; [5],75
same,"Plant response rating, Barnyardgrass",barnyardgrass; [6],85
same,"Crabgrass, Large plant response rating",crabgrass,100
same,"Plant response rating, Crabgrass, Large",crabgrass,80
same,"Plant response rating (0 to 100), Crabgrass, Large",crabgrass,100
same,Velvetleaf plant response rating,velvetleaf; [7],0
same,Velvetleaf plant response rating,velvetleaf; [8],40
same,Velvetleaf plant response rating,velvetleaf; [9],0
same,"Plant response rating, Velvetleaf","velvetleaf; Preemergence, 500 g ai/ha",40
same,Surinam Grass plant response rating,Surinam grass,0
same,"Plant response rating, Surinam Grass",Surinam grass,0
same,Bermudagrass plant response rating,bermudagrass; [10],100
same,"Plant response rating, Bermudagrass",bermudagrass; [11],90
same,"Plant response rating (0 to 100), Bermudagrass",bermudagrass; Preemergence,100
same,Bermudagrass plant response rating,bermudagrass; [12],100
same,Johnsongrass plant response rating,johnsongrass,100
same,"Plant response rating, Johnsongrass",johnsongrass; [3],5
same,"Plant response rating (0 to 100), Johnsongrass",johnsongrass,100
same,Galium plant response rating,catchweed bedstraw,0
same,"Plant response rating, Galium",catchweed bedstraw,0
same,"Plant response rating (0 to 100), Galium",catchweed bedstraw,90
same,Wheat plant response rating,wheat; [7],0
same,Wheat plant response rating,wheat; [8],30
same,Wheat plant response rating,wheat; [9],0
same,"Plant response rating, Wheat","wheat; Preemergence, 500 g ai/ha",20
same,Corn plant response rating,corn; [7],0
same,Corn plant response rating,corn; [8],50
same,Corn plant response rating,corn; [9],0
same,"Plant response rating, Corn","corn; Preemergence, 500 g ai/ha",0
same,"Foxtail, Giant plant response rating",giant foxtail [2]; [7],60
same,"Foxtail, Giant plant response rating",giant foxtail [2]; [8],80
same,"Foxtail, Giant plant response rating",giant foxtail [2]; [9],90
same,"Plant response rating, Foxtail, Giant","giant foxtail [2]; Preemergence, 500 g ai/ha",100
same,Soybean plant response rating,soybean,0
same,"Plant response rating, Soybean",soybean,0
same,"Bromegrass, Downy plant response rating",downy brome; [13],0
same,"Plant response rating, Bromegrass, Downy",downy brome; Preemergence,0
same,"Plant response rating (0 to 100), Bromegrass, Downy",downy brome; Preemergence,0
same,"Bromegrass, Downy plant response rating",downy brome; [12],0
Cc1cc[n+]([O-])c(S(=O)(=O)C(Cl)c2c(C(F)(F)F)nn(C)c2Cl)c1 (racemic) [Compound 22],"Foxtail, Giant plant response rating",giant foxtail [1],80
same,"Plant response rating, Foxtail, Giant",giant foxtail [1],80
same,"Plant response rating (0 to 100), Foxtail, Giant",giant foxtail [1],100
same,Morningglory plant response rating,morningglory,0
same,"Plant response rating, Morningglory",morningglory,0
same,Pigweed plant response rating,pigweed,100
same,"Plant response rating, Pigweed",pigweed,100
same,"Plant response rating, Rice",rice; [3],0
same,"Plant response rating, Rice",rice; [4],30
same,"Plant response rating, Rice",rice; [5],80
same,"Plant response rating, Rice",rice; [6],80
same,Lambsquarters plant response rating,lambsquarters,100
same,"Plant response rating, Lambsquarters",lambsquarters,0
same,"Plant response rating, Barnyardgrass",barnyardgrass; [3],10
same,"Plant response rating, Barnyardgrass",barnyardgrass; [4],20
same,"Plant response rating, Barnyardgrass",barnyardgrass; [5],80
same,"Plant response rating, Barnyardgrass",barnyardgrass; [6],85
same,"Crabgrass, Large plant response rating",crabgrass,100
same,"Plant response rating, Crabgrass, Large",crabgrass,98
same,"Plant response rating (0 to 100), Crabgrass, Large",crabgrass,100
same,Velvetleaf plant response rating,velvetleaf; [7],0
same,Velvetleaf plant response rating,velvetleaf; [8],40
same,Velvetleaf plant response rating,velvetleaf; [9],10
same,"Plant response rating, Velvetleaf","velvetleaf; Preemergence, 500 g ai/ha",60
same,Surinam Grass plant response rating,Surinam grass,60
same,"Plant response rating, Surinam Grass",Surinam grass,10
same,Bermudagrass plant response rating,bermudagrass; [10],100
same,"Plant response rating, Bermudagrass",bermudagrass; [11],70
same,"Plant response rating (0 to 100), Bermudagrass",bermudagrass; Preemergence,100
same,Bermudagrass plant response rating,bermudagrass; [12],100
same,Johnsongrass plant response rating,johnsongrass,10
same,"Plant response rating (0 to 100), Johnsongrass",johnsongrass,70
same,Galium plant response rating,catchweed bedstraw,100
same,"Plant response rating, Galium",catchweed bedstraw,95
same,"Plant response rating (0 to 100), Galium",catchweed bedstraw,100
same,Wheat plant response rating,wheat; [7],0
same,Wheat plant response rating,wheat; [8],40
same,Wheat plant response rating,wheat; [9],20
same,"Plant response rating, Wheat","wheat; Preemergence, 500 g ai/ha",50
same,Corn plant response rating,corn; [7],0
same,Corn plant response rating,corn; [8],30
same,Corn plant response rating,corn; [9],0
same,"Plant response rating, Corn","corn; Preemergence, 500 g ai/ha",20
same,"Foxtail, Giant plant response rating",giant foxtail [2]; [7],50
same,"Foxtail, Giant plant response rating",giant foxtail [2]; [8],80
same,"Foxtail, Giant plant response rating",giant foxtail [2]; [9],100
same,"Plant response rating, Foxtail, Giant","giant foxtail [2]; Preemergence, 500 g ai/ha",100
same,Soybean plant response rating,soybean,0
same,"Plant response rating, Soybean",soybean,0
same,"Bromegrass, Downy plant response rating",downy brome; [13],0
same,"Plant response rating, Bromegrass, Downy",downy brome; Preemergence,0
same,"Plant response rating (0 to 100), Bromegrass, Downy",downy brome; Preemergence,0
same,"Bromegrass, Downy plant response rating",downy brome; [12],0
